Assay [1] concerns MDA-MB-435. The assay can be described thus: Antiproliferative activity against human MDA-MB-435 cells after 24 hrs by MTT assay. It counts as functional. A general note: Formazan colour is commonly taken as a measure of viable cells.
Assay [2] deals with HL-60. The assay can be described thus: Antiproliferative activity against human HL60 cells after 24 hrs by MTT assay. Format: functional.

As a reminder, the GI50 is the concentration that inhibits growth by half. As for `CC(/C=C/C(=O)NO)=C\[C@@H](C)C(=O)c1ccc(N(C)C)cc1` [TRICHOSTATIN], the results for the GI50 in assay [1] and in assay [2] were 1.78 µM and 0.59 µM, respectively.

(Values after ChEMBL document CHEMBL4145553, “Design, synthesis, and biological evaluation of novel amide and hydrazide based thioether analogs targeting Histone deacteylase (HDAC) enzymes” (Eur J Med Chem, 2018).)
